Measurements reported in US20150018268A1, “MULTIVALENT SYNTHETIC COMPOUNDS AS ANTIBIOTIC TREATMENT” (CENTRE NATIONAL DE LA RECHERCHE SCIENTIFIQUE (CNRS), priority 2010, published 2015).
Square brackets hold non-standard residues; d marks the D form. Side chains are listed from the residue outwards. Peptide text beside a SMILES is read from it. * marks the point of attachment. X1 = NCCCCC(N)CN1CCC[C@H]1C(=O)*; Ahx = NCCCCCC(=O)O

Columns and labels:
[1] = Half-life in foetal calf serum; format: in vitro ADME; settings: bovine; foetal calf serum at 37° C.
Excerpt: (§1) The term “standard peptide bond” means an amide bond of formula (—CONH—) which is normally present between 2 amino acids in a natural protein. Such a bond is sensitive to the action of proteases. The term “modified peptide bonds ψ” means a chemical bond between 2 amino acids of chemical formula distinct from the standard peptide bond of formula (—CONH—). […] The term “protease”, also known as “peptidase” or “proteolytic enzyme”, means any enzyme which cleaves the standard peptide bonds in proteins. This process is known as proteolytic cleavage. This involves the use of a water molecule which is what leads to proteases being classified as hydrolases. The proteases namely include proteases known as N-peptidases which carry out the cleavage of the N-terminal end of proteins. These proteases are particularly inconvenient in terms of the in vivo stability of peptides without modified peptide bonds.

Half-life in human serum = format: in vitro ADME; settings: human serum at 37° C.
Excerpt: as §1

Q: Which half-life [1] does the source give for N=C(N)NCCC[C@H](NC(=O)[C@@H]1CCCN1CC(N)CCCCN)C(=O)NCCCC[C@H](NC(=O)[C@H](CCCCN)NC(=O)[C@H](CCCCNC(=O)[C@H](CCCNC(=N)N)NC(=O)[C@@H]1CCCN1CC(N)CCCCN)NC(=O)[C@H](CCCNC(=N)N)NC(=O)[C@@H]1CCCN1CC(N)CCCCN)C(=O)NCC(=O)N1CCC[C@H]1C(=O)N[C@@H](CCCCNC(=O)[C@H](CCCNC(=N)N)NC(=O)[C@@H]1CCCN1CC(N)CCCCN)C(=O)N[C@@H](CCC(=O)O)C(=O)N[C@@H](CCCCNC(=O)[C@H](CCCNC(=N)N)NC(=O)[C@@H]1CCCN1CC(N)CCCCN)C(=O)NCCCCCC(N)=O (some centres unmarked) [HB19, 5[Kψ(CH2N)PR]-TASP] (X1-RK([Arg-X1])KK([Arg-X1])GPK([Arg-X1])EK([Arg-X1])[Ahx]-NH2) here?
A: Its half-life is > 1440 min.

Q: What about the half-life (Half-life in human serum) of the same compound?
A: The half-life was > 1440 min.
